Ki data for 8 compounds are collected here from ChEMBL document CHEMBL1135781 (J Med Chem, 2002).

The structures appear in SMILES notation.

The target of this experiment is Melatonin receptor (Homo sapiens, UniProt P48039+P49286). Nature of the experiment: Ability to inhibit 2-[125I]iodomelatonin specific binding to human melatonin receptor type 1A (MT1) expressed in CHO cells. Format: cell-based.
`COc1ccc2c(c1)C(CCNC(=O)C(F)(F)F)C(c1ccccc1)C2` (stereo not drawn) returned an inhibitory constant (Ki) of 1600 pM.

On to `COc1ccc2c(c1)C(CCNC(=O)C(F)(F)F)=C(c1ccccc1)C2`, for which the Ki was found to be 6.02 pM.

For the compound `COc1ccc2c(c1)[C@H](CCNC(C)=O)CC2`, the Ki turned out to be 73.3 pM.

In turn, `COc1ccc2c(c1)C(CCNC(C)=O)CC2` (stereo not drawn) had a Ki of 131 pM. This Ki lies about 1.8-fold higher than the previous one.

Turning to `COc1ccc2c(c1)[C@@H](CCNC(C)=O)CC2`, the Ki stood at 10600 pM.

The compound `CCCC(=O)NCC[C@@H]1CCc2ccc(OC)cc21` showed a Ki of 32.1 pM.

The compound `CCCC(=O)NCCC1CCc2ccc(OC)cc21` (stereo not drawn) returned a Ki of 55.3 pM. Against the preceding compound, the Ki is about 1.7-fold higher.

Consider `CCCC(=O)NCC[C@H]1CCc2ccc(OC)cc21`, for which the Ki amounted to 43700 pM. This Ki lies about 790-fold higher than the previous one.

A word on the Ki: it is a measure of affinity in units of concentration, obtained from inhibition or displacement.
